The source of these data is ChEMBL document CHEMBL3124910, “Discovery and structure-activity relationships study of novel thieno[2,3-b]pyridine analogues as hepatitis C virus inhibitors” (Bioorg Med Chem Lett, 2014).

For data set [1], the system named is Hepatitis C virus. Nature of the data set: Antiviral activity against HCV genotype 1b infected in human HuH7 cells assessed as inhibition of viral RNA replication after 72 hrs by luciferase reporter gene assay. The following applies: Huh-7, 72 h. In kind it is functional, organism-based, Hepacivirus hominis.
Data set [2] in a line: Selectivity index, ratio of CC50 for human HuH7 cells to EC50 for HCV genotype 1b infected in human HuH7 cells. On the set-up: species or system Huh-7.
The nature of data set [3]: Cytotoxicity against human HEK293 cells after 72 hrs by MTT assay. The format is cell-based.
A short description of data set [4]: Cytotoxicity against human LO2 cells after 72 hrs by MTT assay. The format is cell-based, L02.
Data set [5] can be described thus: Cytotoxicity against human HuH7 cells after 72 hrs by MTT assay. The format is cell-based, Huh-7.

For the compound `CCN(CC)C(=O)c1sc2nc(-c3ccccc3)cc(C(F)(F)F)c2c1N`, the EC50 in data set [1] came to 3.5 µM. The “Ratio CC50/EC50” value in data set [2] is >28.6. Moreover, the CC50 at 72 h in data set [3], in data set [4] and in data set [5] was > 100 µM each time.
Consider `Nc1c(C(=O)N2CCOCC2)sc2nc(-c3ccccc3F)cc(C(F)(F)F)c12`, for which, in data set [1], the EC50 worked out at 17.6 µM. The CC50 at 72 h in data set [5] is > 20 µM.
With `O=C(c1cc2c(C(F)(F)F)cc(-c3ccccc3)nc2s1)N1CCOCC1`, the EC50 in data set [1] amounted to 4.5 µM. Moreover, the “Ratio CC50/EC50” value in data set [2] is on record as >22.2. Moreover, the CC50 at 72 h in data set [3] was 92.6 µM; in data set [4], > 100 µM; in data set [5], > 100 µM.
In the case of `COc1cccc(-c2ccc3c(N)c(C(N)=O)sc3n2)c1`, the EC50 in data set [1] is > 20 µM. The CC50 at 72 h in data set [5] was < 0.4 µM.
The like results for `Nc1c(C(=O)NC2CCCC2)sc2nc(-c3ccccc3)cc(C(F)(F)F)c12` were, in that order, 5.5 µM and > 20 µM.
The matching figures for `COc1ccc(-c2ccc3c(N)c(C(N)=O)sc3n2)cc1`: > 20 µM and < 0.4 µM.
The matching figures for `COc1ccccc1-c1cc(C(F)(F)F)c2c(N)c(C(=O)N3CCOCC3)sc2n1`: 8.3 µM and > 20 µM.
Regarding `Nc1c(C(=O)N2CCOCC2)sc2nc(-c3nccs3)cc(C(F)(F)F)c12`, in data set [1], the EC50 was 8.9 µM. In data set [5], the CC50 at 72 h was > 20 µM.
The matching figures for `CCOC(=O)c1sc2nc(-c3ccco3)cc(C(F)(F)F)c2c1N`: 5.7 µM and > 20 µM.
The matching figures for `COc1cccc(-c2cc(C(F)(F)F)c3c(N)c(C(=O)N4CCOCC4)sc3n2)c1`: 10.8 µM and > 20 µM.
The like results for `Nc1c(C(=O)N2CCOCC2)sc2nc(-c3ccco3)cc(C(F)(F)F)c12` were, in that order, 9.6 µM and > 20 µM.
For the compound `Nc1c(C(=O)N2CCNCC2)sc2nc(-c3ccccc3)cc(C(F)(F)F)c12`, the EC50 in data set [1] came to 9.6 µM. The CC50 at 72 h in data set [5] was > 20 µM.
The like results for `CN1CCN(C(=O)c2sc3nc(-c4ccccc4)cc(C(F)(F)F)c3c2N)CC1` were, in that order, 11.4 µM and > 20 µM.
The like results for `Nc1c(C(=O)NCc2cccs2)oc2nc(-c3ccccc3)cc(C(F)(F)F)c12` were, in that order, 9.8 µM and > 20 µM.
The like results for `Nc1c(C(=O)NCc2cccs2)sc2nc(-c3ccccc3)cc(C(F)(F)F)c12` were, in that order, 8.2 µM and > 20 µM.
As for `Nc1c(C(=O)N2CCOCC2)sc2nc(-c3ccccc3)ccc12`, the EC50 in data set [1] was determined as 17.2 µM. In addition, in data set [5], the CC50 at 72 h was > 20 µM.
The like results for `Nc1c(C(=O)O)sc2nc(-c3ccccc3)cc(C(F)(F)F)c12` were, in that order, > 20 µM and > 20 µM.
The like results for `Nc1c(C(=O)N2CCSCC2)sc2nc(-c3ccccc3)cc(C(F)(F)F)c12` were, in that order, 7.2 µM and > 20 µM.
The like results for `Nc1c(C(=O)N2CCOCC2)sc2nc(C3CC3)cc(C(F)(F)F)c12` were, in that order, 9.7 µM and > 20 µM.
Turning to `Nc1c(C(=O)N2CCOCC2)sc2nc3c(c(C(F)(F)F)c12)CCc1ccccc1-3`, the EC50 in data set [1] is 3.9 µM. Besides, the “Ratio CC50/EC50” value in data set [2] was >25.6. In addition, the values for the CC50 at 72 h in data set [3], in data set [4] and in data set [5] were 72.7 µM, > 100 µM and > 100 µM, respectively.
Take `Nc1c(C(=O)N2CCOCC2)sc2nc(-c3cccs3)cc(C(F)(F)F)c12`: in data set [1], the EC50 came to 6.5 µM. Further, the CC50 at 72 h in data set [5] was > 20 µM.
Turning to `Nc1c(C(=O)N2CCC(=O)CC2)sc2nc(-c3ccccc3)cc(C(F)(F)F)c12`, the EC50 in data set [1] is > 20 µM. In addition, in data set [5], the cytotoxic concentration (CC50) at 72 h is > 20 µM.
Consider `Nc1c(C(=O)NCc2ccccc2)sc2nc(-c3ccccc3)cc(C(F)(F)F)c12`, for which, in data set [1], the EC50 was > 20 µM. In data set [5], the CC50 at 72 h was > 20 µM.
For the compound `Nc1c(C(=O)N2CCOCC2)sc2nc(-c3cnccn3)cc(C(F)(F)F)c12`, in data set [1], the EC50 is > 20 µM. In data set [5], the CC50 at 72 h was > 20 µM.
As to `CCOC(=O)c1sc2nc(C3CC3)cc(C(F)(F)F)c2c1N`, the EC50 in data set [1] came to 6.8 µM. The CC50 at 72 h in data set [5] was > 20 µM.
The like results for `COc1ccccc1-c1cc(C(F)(F)F)c2c(N)c(C(N)=O)sc2n1` were, in that order, 14.3 µM and > 20 µM.
Consider `Nc1c(C(=O)N2CCOCC2)sc2nc(-c3ccc(Cl)c(Cl)c3)cc(C(F)(F)F)c12`, for which, in data set [1], the EC50 is > 20 µM. The CC50 at 72 h in data set [5] was > 20 µM.
With `Nc1c(C(=O)N2CCn3c(nnc3C(F)(F)F)C2)sc2nc(-c3ccccc3)cc(C(F)(F)F)c12`, in data set [1], the EC50 was 3.3 µM. The “Ratio CC50/EC50” value in data set [2] is 13.7. In addition, the CC50 at 72 h worked out at 28 µM in data set [3], 40.7 µM in data set [4] and 45.2 µM in data set [5].
In the case of `COc1ccc(-c2cc(C(F)(F)F)c3c(N)c(C(=O)N4CCOCC4)sc3n2)cc1`, the EC50 in data set [1] is 10.3 µM. Moreover, in data set [5], the cytotoxic concentration (CC50) at 72 h is > 20 µM.
For `CCOC(=O)c1oc2nc(-c3ccccc3)cc(C(F)(F)F)c2c1N`, the EC50 in data set [1] was 6.8 µM. For the same compound, the CC50 at 72 h in data set [5] was > 20 µM.
The matching figures for `Nc1c(C(=O)N2CCOCC2)sc2nc(-c3cccc(F)c3)cc(C(F)(F)F)c12`: 6.7 µM and > 20 µM.
`Cc1cc(-c2ccccc2)nc2sc(C(=O)N3CCOCC3)c(N)c12`: the EC50 in data set [1] amounted to 5.8 µM. The CC50 at 72 h in data set [5] is > 20 µM.
The matching figures for `CC(C)(C)OC(=O)N1CCN(C(=O)c2sc3nc(-c4ccccc4)cc(C(F)(F)F)c3c2N)CC1`: > 20 µM and > 20 µM.
The matching figures for `NC(=O)c1sc2nc(C3CC3)cc(C(F)(F)F)c2c1N`: 12.2 µM and > 20 µM.
`NC(=O)c1sc2nc(-c3ccccc3)cc(C(F)(F)F)c2c1N`: in data set [1], the EC50 was 8.2 µM. In addition, in data set [5], the CC50 at 72 h was > 20 µM.
On to `Nc1c(C(=O)N2CCOCC2)sc2nc(-c3ccccc3)cc(C(F)(F)F)c12`, for which the EC50 in data set [1] stood at 3.3 µM. Also, the “Ratio CC50/EC50” value in data set [2] is on record as >30.3. The CC50 at 72 h in data set [3] was 85.1 µM; in data set [4], 94.4 µM; in data set [5], > 100 µM.
`CCOC(=O)c1sc2nc(-c3ccccc3)cc(C(F)(F)F)c2c1N`: the EC50 in data set [1] came out at 19.3 µM. Also, in data set [5], the CC50 at 72 h is > 20 µM.
The matching figures for `CN(C)C(=O)c1sc2nc(-c3ccccc3)cc(C(F)(F)F)c2c1N`: 8.2 µM and > 20 µM.
The like results for `Nc1c(C(=O)N2CCOCC2)sc2nc(-c3ccc(F)cc3)cc(C(F)(F)F)c12` were, in that order, 18.6 µM and > 20 µM.
The matching figures for `Nc1c(C(=O)N2CCOCC2)oc2nc(-c3ccccc3)cc(C(F)(F)F)c12`: 11.2 µM and > 20 µM.
Take `COc1ccccc1-c1ccc2c(N)c(C(N)=O)sc2n1`: the EC50 in data set [1] was > 20 µM. Besides, the CC50 at 72 h in data set [5] was > 20 µM.
As for `CCOC(=O)c1oc2nc(-c3cccs3)cc(C(F)(F)F)c2c1N`, in data set [1], the EC50 amounted to 18.5 µM. For the same compound, the CC50 at 72 h in data set [5] was > 20 µM.
The matching figures for `Nc1c(C(=O)N2CCCCC2)sc2nc(-c3ccccc3)cc(C(F)(F)F)c12`: 5.9 µM and > 20 µM.
The like results for `CCOC(=O)c1sc2nc(-c3cccs3)cc(C(F)(F)F)c2c1N` were, in that order, 10 µM and > 20 µM.
The like results for `Nc1c(C(=O)N2CCc3sccc3C2)sc2nc(-c3ccccc3)cc(C(F)(F)F)c12` were, in that order, 12.5 µM and > 20 µM.
